Here are results for three molecules from patent US20050049241A1, “Pyridyl piperazinyl ureas” (priority 2003, published 2005).

SMILES strings stand for the structures.

Experiment [1] relates to guinea pigs. The settings on record: cough induced by capsaicin and citric acid; cited from earlier work.
Experiment [2] concerns guinea pig pain models. The settings on record: guinea pig models of inflammatory and neuropathic pain; cited from earlier work.
The target in experiment [3] is T1, VR1 (Homo sapiens, UniProt Q8NER1). Nature of the experiment: Functional assay: block of capsaicin-induced Ca2+ influx (FLIPR, hVR1/HEK293 cells). On the set-up: expressed in transfected cells; host or cells: HEK293. Type of experiment: cell-based. The method, then:
Functional assay: block of capsaicin-induced Ca^2+ influx
The contents of the wells were mixed 3 times (40 μL mix volume) immediately after the additions were made.

The target in experiment [4] is T1, VR1. Nature of the experiment: [3H] Resiniferatoxin binding assay on cell membranes. Details: expressed in transfected cells; inferred to be hVR1/HEK293. As to conditions: [3H] RTX displacement, 37° C. 60 min.
Description: Resiniferatoxin Binding Assay
Cell membranes were prepared by washing cells with Hank's Balanced Salt Solution. Cells were dissociated with cell dissociation buffer (Sigma), and then centrifuged at 1000×g for 5 min. Cell pellets were homogenized in cold 20 mM HEPES buffer, pH 7.4, containing 5.8 mM NaCl, 320 mM sucrose, 2 mM MgCl2, 0.75 mM CaCl2 and 5 mM KCl and centrifuged at 1000×g for 15 min. The resultant supernatant was then centrifuged at 4000×g for 15 min. The pellet membranes were stored at −80° C. […] Briefly, about 120 μg protein/mL membranes were incubated with the indicated concentration of [^3H] RTX (New England Nuclear) in 0.5 mL of the HEPES buffer (pH 7.4) containing 0.25 mg/mL fat acid free bovine serum albumin at 37° C. for 60 min and then the reaction mixture was cooled to 4° C. α1-Acid glycoprotein (0.1 mg) was added to each sample and was incubated at 4° C. for 15 min. The samples were centrifuged at 18,500 g for 15 min. The tip of the microcentrifuge tube containing the pellets was cut off. The non-specific binding was tested in the presence of 200 nM unlabeled RTX. Bound radioactivity was quantified by scintillation counting. Ki is calculated based on a non-linear regression program (PRISM™ software, GraphPad Software, San Diego, Calif.).

T1 sequence (Q8NER1 whole entry): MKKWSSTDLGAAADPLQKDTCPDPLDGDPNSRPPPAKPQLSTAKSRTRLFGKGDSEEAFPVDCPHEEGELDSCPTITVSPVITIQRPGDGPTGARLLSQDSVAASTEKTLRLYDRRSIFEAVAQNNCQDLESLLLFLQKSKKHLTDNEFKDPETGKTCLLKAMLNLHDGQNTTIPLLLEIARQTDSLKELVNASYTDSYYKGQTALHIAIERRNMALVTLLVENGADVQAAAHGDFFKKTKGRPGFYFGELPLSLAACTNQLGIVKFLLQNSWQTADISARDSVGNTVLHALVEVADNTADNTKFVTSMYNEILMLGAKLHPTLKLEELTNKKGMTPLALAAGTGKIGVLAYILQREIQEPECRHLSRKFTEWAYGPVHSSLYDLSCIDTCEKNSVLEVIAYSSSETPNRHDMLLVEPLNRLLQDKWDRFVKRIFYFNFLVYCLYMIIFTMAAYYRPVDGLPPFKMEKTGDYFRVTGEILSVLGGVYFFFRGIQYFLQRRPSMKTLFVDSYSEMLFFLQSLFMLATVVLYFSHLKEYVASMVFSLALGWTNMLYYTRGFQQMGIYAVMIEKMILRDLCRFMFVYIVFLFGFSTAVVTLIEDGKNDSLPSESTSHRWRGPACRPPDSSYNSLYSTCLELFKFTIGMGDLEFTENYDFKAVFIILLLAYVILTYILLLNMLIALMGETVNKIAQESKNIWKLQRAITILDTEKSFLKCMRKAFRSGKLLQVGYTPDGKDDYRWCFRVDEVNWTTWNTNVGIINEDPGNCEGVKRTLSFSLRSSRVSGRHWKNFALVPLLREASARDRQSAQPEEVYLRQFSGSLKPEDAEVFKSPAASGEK

Turning to `Oc1cc2c(cc1O)CN(C(=S)NCCc1ccc(Cl)cc1)CCC2` [Capsazepine], in experiment [1], the inhibition of cough entry is “inhibits cough induced by capsaicin and citric acid”. Further, in experiment [2], the “reversal of mechanical hyperalgesia” value was “reverses mechanical hyperalgesia”. Take `O=C(Nc1ccc(C(F)(F)F)cn1)N1CCN(c2ncccc2Cl)CC1` [Comparative A, 4-(3-chloro-pyridin-2-yl)-piperazine-1-carboxylic acid (5-trifluoromethyl-pyridin-2-yl)-amide]: the half-maximal inhibitory concentration (IC50) in experiment [3] (block of Ca2+ influx induced by 15 nM capsaicin, hVR1/HEK293, 3 and 60 min incubation data combined) turned out to be 120 nM. This molecule also yielded an inhibition constant (Ki) in experiment [4] of 1020 nM.

Turning to `COc1cc(CNC(=O)CCCC/C=C/C(C)C)ccc1O` [capsaicin], in experiment [3] (agonist, human recombinant VR1 in hVR1/HEK293), the “capsaicin concentration at ~EC80” value is about 15 nM.

By IC50 is commonly meant the midpoint of a concentration-inhibition curve. What is called Ki is a measure of affinity in units of concentration, obtained from inhibition or displacement. Low values mean a stronger hold on the target, high ones a looser hold on the target.
